Experimental data taken from paper doi:10.1101/2025.03.03.641193, “Trihydroxybenzaldoximes are redox cycling inhibitors of ThDP-dependent DXP synthase” (bioRxiv, 2025).
Where two headings read alike, the source gives them in different places.

Assays:
EcDXPS [1] = molecular target: T1, EcDXPS (Escherichia coli, UniProt P77488); conditions: cited from earlier work; for inhibitory activity against DXPS: source not stated at the place, probably ref 32
T1 construct: made in house

R478A DXPS = molecular target: T2, R478A DXPS (Escherichia coli, UniProt P77488, R478A); conditions: EcR478A vs WT; cited from earlier work
T2 construct: made in house

EcDXPS [2] = molecular target: T1, EcDXPS; experiment: DXPS-IspC coupled assay, aerobic, WT EcDXPS; assay type: biochemical, E. coli; conditions: for MOI varying D-GAP / MOI varying pyruvate: WT EcDXPS, aerobic
Procedure: Inhibitory activity of compounds against DXPS were monitored via a continuous spectrophotometric coupled assay with DXPS and IspC as previously described.[41],[42] Briefly, Reaction mixtures containing HEPES (100 mM, pH 8.0), MgCl2 (2 mM), NaCl (5 mM), ThDP (1 mM), BSA (1 mg/mL), DXPS (125–500 nM), IspC (1.7 μM), NADPH (160 μM), DMSO (5%, v/v), and inhibitor (0–200 μM) were preincubated at 25 °C (or chamber temperature 25–30 °C) for 5 min. Enzymatic reactions were initiated via the addition of 20 μL of a 10x substrate mix for a final well volume of 200 μL. Reactions were performed in triplicate unless otherwise noted. See the following sections for details and modifications.
When varying pyruvate (0–500 μM), GAP was maintained at 50 μM (3 mM for R478A). When varying GAP (0–500 μM), pyruvate was maintained at 500 μM. The following [DXPS] were used when varying 1: WT EcDXPS, R478A, H431A, D427A (200 nM), R99A (500 nM), WT DrDXPS, WT PaDXPS (150 nM). […] Reactions were incubated and initiated as described above. Immediately following initiation, NADPH depletion was monitored at 340 nm at 25 °C for 7–10 min with a 14–20 second time interval. Initial velocities of DXP formation were determined from the linear portion of the NADPH decay. […] Initial velocities were plotted vs. substrate concentration, and the data were fit to equation 1 (mixed model), 2 (competitive), or 3 (uncompetitive) based on the calculated α value and goodness of fit in GraphPad Prism. Reported standard errors of the mean for Kis are calculated from three replicates.

DXPS = molecular target: T3, DXPS (Escherichia coli, UniProt P77488); experiment: NMR detection of chemical reduction by DXPS and substrates (LR 1H-15N HSQC); assay type: biochemical; conditions: 500 μM
T3 construct: made in house
Procedure: In order to determine if 1 is reduced by the C2-α-carbanion on DXPS, we prepared the ^15N-labeled analog 8 aerobically in Tris pH 8 (to bias the oxidized form, Fig S7) and then transferred this mixture to the anaerobic chamber to minimize O2-mediated re-oxidation of 8 following reduction by the C2-α-carbanion (Fig S18). […] Reactions containing 8 (500 μM) were then initiated by the addition of DXPS (1 μM) and ^13C-labeled pyruvate (2 mM), in the presence or absence of 500 μM GAP (Fig 8B–E, S22–23). Samples were then quenched by boiling and vortexing before being transferred into degassed NMR tubes and sealed with rubber septa and parafilm to preclude reoxygenation. […] Further evidence supporting Model 2 in which 1 induces LThDP decarboxylation and promotes substrate wasting, was obtained by detection of products using 1D ^1H-NMR which selectively detects H{^13C} and H3{^13C} spectra via a proton multiplicity filter (Fig 8, S23–24). […] Production of DXP relative to acetate in the presence of D-GAP was reduced in the presence of 8 (Fig S24), consistent with a mechanism in which 1 competes with GAP as an acceptor and in agreement with the previously characterized competitive mechanism of inhibition with respect to D-GAP.[32]
Reaction buffer (50 mM Tris pH 8, 2 mM MgCl2, 100 mM NaCl, 1 mM ThDP, 10% D2O) was prepared aerobically. Oxime 8 (500 μM) was added, and the mixture was incubated at 4 °C for 30 min. Reaction mixtures were then brought into the anaerobic chamber and allowed to deoxygenate ~2 hrs. Reactions were initiated by addition of 1 μM DXPS with 2 mM sodium pyruvate-^13C3 or 2 mM sodium pyruvate-^13C3 and 500 μM GAP. Reaction mixtures were incubated at 25 °C for 1 hr. Reactions were quenched by boiling for 5 min at 95 °C followed by vortexing for 15 seconds. The quenched mixtures were transferred to labeled NMR tubes which were sealed with rubber septa and parafilm prior to removal from the chamber to exclude oxygen once removed from the chamber. 2D Multiple Bond Long Range (LR) ^1H-^15N-HSQC and 1D ^1H detected H{^13C} and H3{^13C} spectra via a proton multiplicity filter which selects for ^13C nuclei attached to an odd number of protons were acquired on a Bruker Avance NEO 600 MHz spectrometer equipped with a TCI cryogenic probe equipped with z-gradients with a cryo-cooled ^13C preamplifier, resulting in high sensitivity for ^13C detection. Spectra were acquired at 600 MHz (^1H), 150 MHz (^13C), and 61 MHz (^15N) at 25 °C. Parameters for various categories of spectra are as follows: (LR ^1H-^15N HSQC): 16 scans and 150 ms acquisition time (t2) per FID and a ^1H spectral width of 15.1376 ppm; since the chemical shifts of N^R (δ 335) and N^O (δ 374) are separated by ~ 40 ppm, data collection times were optimized by positioning the ^15N carrier at 354 ppm and using an ^15N spectral width of 25 ppm and an acquisition time of 13 ms along ^15N (t1); with a 1.5 s relaxation delay between successive scans, the total data collection period per 2D spectrum was 20 minutes. ^1H detected H{^13C} and H3{^13C} filtered 1D spectra: 200 ms acquisition time/FID, and a 5s relaxation day between successive scans, 1.5 minutes per spectrum. Controls were also prepared in which reactions were initiated by addition of 1 μM DXPS with no substrates, as well as 2 mM ^13C-labeled pyruvate + 500 μM GAP with DXPS dialysis buffer in place of enzyme. A “mixed” redox state control of 1 (500 μM) was prepared aerobically in 50 mM HEPES pH 8 with 10% D2O.

CO/N=C/c1cc(O)c(O)cc1O [compound 2]
MOI varying pyruvate (EcDXPS [1]; footnote a): Noncompetitive | Ki (EcDXPS [1]; vary pyruvate): 15.6 ± 0.7 µM

CC(=O)P(=O)(O)OCCc1cn([C@H](Cc2ccccc2)C(=O)O)nn1 [D-PheTrAP, D-phenylalanine triazol acetyl phosphonate]
fold loss in potency on EcR478A (R478A DXPS): > 30 fold

CN/N=C/c1cc(O)c(O)cc1O [compound 4]
MOI varying D-GAP (EcDXPS [2]): mixed | MOI varying pyruvate (EcDXPS [2]): uncompetitive | potency against DXPS (EcDXPS [1]; determined in the presence of ascorbate): lacking measurable potency

CO/N=C/c1cc(O)ccc1O [compound 6]
inhibitory activity against DXPS (EcDXPS [1]): lack of potency

O/[15N]=C/c1cc(O)c(O)cc1O [compound 8, ^15N-labeled (E)-2,4,5-Trihydroxybenzaldehyde oxime]
redox state after incubation (LR 1H-15N HSQC) (DXPS; DXPS 1 μM + pyruvate 2 mM + D-GAP 500 μM, anaerobic): readily reduced | redox state after incubation (LR 1H-15N HSQC) (DXPS; DXPS 1 μM + pyruvate 2 mM, no GAP, anaerobic): fully reduced | redox state after incubation (LR 1H-15N HSQC) (DXPS; DXPS 1 μM, no substrates): maintained mostly in the oxidized form | redox state after incubation (LR 1H-15N HSQC) (DXPS; ascorbate 5 mM control): Total reduction | redox state after incubation (LR 1H-15N HSQC) (DXPS; pyruvate 2 mM + D-GAP 500 μM, no DXPS): Some reduction

CO/N=C/c1ccc(O)c(O)c1 [compound 5]
inhibitory activity against DXPS (EcDXPS [1]): lack of potency

N/N=C/c1cc(O)c(O)cc1O [compound 3, (E,Z)-5-(hydrazineylidenemethyl)benzene-1,2,4-triol]
Ki (EcDXPS [2]): 17.5 ± 0.6 µM | MOI varying D-GAP (EcDXPS [2]): competitive | MOI varying pyruvate (EcDXPS [2]): uncompetitive
